Assays:
[1] = Antiinflammatory activity in RBL2H3 cells assessed as inhibition of degranulation; format: functional, cell-based; conditions: Rattus norvegicus, RBL-2H3
[2] = system: RAW264.7; assay: Antiinflammatory activity in mouse RAW264.7 cells assessed as inhibition of LPS-stimulated nitric oxide production at 20 uM after 18 hrs by Griess assay relative to control; format: functional; conditions: RAW264.7, 18 h
[3] = system: RAW264.7; assay: Antiinflammatory activity in mouse RAW264.7 cells assessed as inhibition of LPS-stimulated nitric oxide production after 18 hrs by Griess assay; format: functional, cell-based; conditions: RAW264.7, 18 h
[4] = system: RAW264.7; assay: Cytotoxicity against mouse RAW264.7 cells assessed as cell viability at 20 uM after 24 hrs by MTS assay; format: cell-based; conditions: raw264.7, 24 h
[5] = system: RAW264.7; assay: Cytotoxicity against mouse RAW264.7 cells assessed as cell viability at 20 uM after 24 hrs by MTS assay; conditions: raw264.7, 24 h
[6] = system: RAW264.7; assay: Antiinflammatory activity in mouse RAW264.7 cells assessed as inhibition of LPS-stimulated nitric oxide production at 2 uM after 18 hrs by Griess assay relative to control; format: functional; conditions: RAW264.7, 18 h

| IC50 [1] [µM] | IC50 [3] [µM] | Structure (SMILES) | inhibition at 20 µM [2] [%] | Activity [4] | Activity [5] | inhibition at 2 µM [6] [%] |
| --- | --- | --- | --- | --- | --- | --- |
| > 30 | – | O=C(/C=C/c1ccc(O)cc1)c1ccc(O)cc1O [ISOLIQUIRITIGENIN] | – | – | – | – |
| > 30 | – | COc1cc(O)ccc1/C=C/C(=O)c1ccc(O)cc1 [ECHINATIN] | – | – | – | – |
| > 30 | 9.94 | COc1c(/C=C/C(=O)c2ccc(O)cc2)ccc(O)c1O | 69.6 | Non-toxic | – | 17.2 |
| – | 4.72 | COc1c(/C=C/C(=O)c2ccc(O)cc2O)ccc(O)c1O | 96.5 | Non-toxic | – | 71.1 |

More lines, now with the values behind:

| Structure (SMILES) | IC50 [1] [µM] | IC50 [3] [µM] | inhibition at 20 µM [2] [%] | Activity [4] | Activity [5] | inhibition at 2 µM [6] [%] |
| --- | --- | --- | --- | --- | --- | --- |
| C=CC(C)(C)c1cc(/C=C/C(=O)c2ccc(O)cc2)c(OC)cc1O [LICOAGROCHACONE A] | 17 | – | – | – | – | – |
| COc1c(/C=C/C(=O)c2ccc(O)c(CC=C(C)C)c2)ccc(O)c1O [LICOCHALCONE D] | 21 | 4.85 | 95.4 | Toxic | Toxic | 57.8 |
| COc1c(/C=C/C(=O)c2ccc(O)c(O)c2)ccc(O)c1O | – | 10.1 | 92.5 | Non-toxic | – | -6 |
| COc1c(/C=C/C(=O)c2ccc(O)cc2)ccc(O)c1CC=C(C)C | 24 | – | – | – | – | – |
| C=C(C)C(C)c1cc(C(=O)/C=C/c2ccc(O)c(O)c2OC)ccc1O (stereo not drawn) | – | 4.95 | 94.3 | Toxic | Toxic | 56.5 |
| C=CC(C)(C)c1cc(C(=O)/C=C/c2ccc(O)c(O)c2OC)ccc1O | – | 2.37 | 96.1 | Toxic | Toxic | 75.9 |
